In patent EP0166353B1, “Benzofused lactams useful as antihypertensive agents and as cholecystokinin antagonists” (Merck & Co., Inc., priority 1984, dated 1986):

Biological target: CCK receptor
Experiment: 125I-CCK-33 receptor binding assay
Settings: tissue not stated (methods given for rat pancreas and guinea pig brain cortex membranes); read-out: IC₅₀, inhibition of specific ¹²⁵I-CCK-33 binding
Method: CCK-33 was radiolabeled with ¹²⁵I-Bolton Hunter reagent (2000 Ci/mmole) as described by Sankara et al. (J. Biol. Chem. 254: 9349-9351, 1979). Receptor binding was performed according to Innis and Snyder (Proc. Natl. Acad. Sci. 77: 6917-6921, 1980) with the minor modification of adding the additional protease inhibitors, phenylmethane sulfonyl fluoride and o-phenanthroline. The latter two compounds have no effect on the ¹²⁵I-CCK receptor binding assay.
Male Sprague-Dawley rats (200-350g) were sacrificed by decapitation. The whole pancreas was dissected free of fat tissue and was homogenized in 20 volumes of ice-cold 50 mM, Tris HCl (pH 7.7 at 25°C) with a Brinkmann Polytron PT 10. The homogenates were centrifuged at 48,000 g for 10 min. […] The supernatant was aspirated and discarded, pellets were counted with a Beckman gamma 5000. […]
Male Hartley guinea pigs (300-500g) were sacrificed by decapitation and the brains were removed and placed in ice-cold 50 mM, Tris HCl plus 7.58 g/L Trizma-7.4 (pH 7.4 at 25°C) Cerebral cortex was dissected and used as a receptor source. […] The supernatant was aspirated and discarded, pellets were counted with a Beckman gamma 5000.

`CCOC(=O)C(CCc1ccccc1)NC1CCc2ccccc2N(CC(=O)COC(C)=O)C1=O` (stereo not shown) [1-(3-Acetoxy-2-oxopropyl)-3-(1-carboethoxy-3-phenyl-1-propyl)amino homodihydrocarbostyril] gave an IC50 of 25 µM.
